From US12571805B2, “Methods and compositions for determining OxPL-associated diseases and disorders” (The Regents of the University of California, priority 2019, dated 2026)

Tests used:
primary hepatocytes = experiment: OxPAPC treatment of primary hepatocytes: ROS, mitochondrial membrane potential, fatty acid oxidation, SOD activity; type: cell-based, mouse; conditions: 200 μM MnTBAP 1 hour, then OxPAPC 100 μg/mL 4 hours, Ldlr−/− hepatocytes
Method: Primary hepatocyte isolation: Primary hepatocytes were isolated from 6-week-old Ldlr^−/− and E06-scFvLdlr^−/− mice by a 2-step collagenase perfusion method. Briefly, HBSS (Life Technologies Co.; no Calcium and Magnesium, 0.5 mM EDTA, 25 mM HEPES) was used to perfuse liver at 10 mL/min speed until the liver turns into pale. Afterward, the liver was perfused with HBSS digestion buffer (Life Technologies Co.; 30 mg/100 mL collagenase I, 2 tablet/100 mL protease inhibitor) at 15 mL/min speed for 18 min. After sequential flows, cells were smashed through 100 μm strainer and washed with Williams' Medium E (Gibco, Grand Island, NY). Hepatocytes were isolated by density gradient centrifugation using percoll (Pharmacia, Sweden). Hepatocytes with 95% viability were cultured in Williams' Medium E supplemented with 5% serum, 0.5% penicillin/streptomycin and 15 mM HEPES at 37° C. in a 5% CO2 incubator overnight before use in experimentation.
ROS and Mitochondrial membrane potential measurement: Total ROS was determined with Total ROS detection Kit (ENZ-51011 Enzo Life Sciences Inc.) and mitochondrial ROS levels using MitoSOX (Invitrogen) following the manufacturers' instructions. Mitochondrial membrane potential (Ψm) was measured using TMRM as previously described (Shimada et al., 2012).
Ex vivo/in vitro fatty acid oxidation assay: Liver or adipose tissues were dissected, weighted, quickly rinsed in PBS. Minced tissues were placed in 96-well tissue culture plate. […] Fatty Acid Oxidation was measured with combination of Fatty Acid Oxidation Assay Kit (Abcam) and Oxygen Consumption Assay Kit (Abcam) according to the manufacturer's instruction. […] Fluorescence was measured at 37° C. for 30 min by Tecan Infinite M200 Pro.
In vitro modification of SOD and SOD activity: Recombinant human MnSOD (Abcam, ab82656) was incubated with POVPC (Avanti Polar Lipids, 870606) (molar ration 1:40) or vehicle at 37° C. overnight. […] SOD activity of recombinant and modified MnSOD and liver and cell lysates was measured with Superoxide Dismutase Activity Assay Kit (Abcam) according to the manufacturer's instruction.

Recombinant human MnSOD = target: T1, Recombinant human MnSOD (Homo sapiens, UniProt P04179); experiment: In vitro modification of SOD and SOD activity; type: biochemical; conditions: POVPC molar ratio 1:40, 37° C. overnight, vs native MnSOD
T1 construct: purchased Abcam ab82656
T1 sequence (P04179 25-222): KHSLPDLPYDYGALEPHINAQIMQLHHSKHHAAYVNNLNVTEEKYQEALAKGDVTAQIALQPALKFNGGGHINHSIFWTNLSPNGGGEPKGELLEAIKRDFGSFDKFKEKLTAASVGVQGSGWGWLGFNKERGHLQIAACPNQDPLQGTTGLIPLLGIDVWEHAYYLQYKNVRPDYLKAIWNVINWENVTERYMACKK
Method: In vitro modification of SOD and SOD activity: Recombinant human MnSOD (Abcam, ab82656) was incubated with POVPC (Avanti Polar Lipids, 870606) (molar ration 1:40) or vehicle at 37° C. overnight. 300 μg/mL NaBH3CN was added to stabilize reversible OxPL adducts. Both native and POVPC modified MnSOD were dialyzed extensively against PBS. SOD activity of recombinant and modified MnSOD and liver and cell lysates was measured with Superoxide Dismutase Activity Assay Kit (Abcam) according to the manufacturer's instruction.

Row | SMILES | OxPL-diminished mitochondrial membrane potential (primary hepatocytes) | mitochondrial ROS accumulation (primary hepatocytes) | total ROS accumulation (primary hepatocytes) | MnSOD activity of POVPC modified MnSOD (Recombinant human MnSOD)
1 | O=C(O)c1ccc(/C2=C3\C=CC(=N3)/C(c3ccc(C(=O)O)cc3)=c3/cc/c4[n]3[Mn]([Cl])[n]3c2ccc3/C(c2ccc(C(=O)O)cc2)=C2/C=CC(=N2)\C=4c2ccc(C(=O)O)cc2)cc1 [MnTBAP] | restored | abrogated | abrogated | –
2 | CCCCCCCCCCCCCCCC(=O)OC[C@H](COP(=O)([O-])OCC[N+](C)(C)C)OC(=O)CCCC=O [POVPC, 1-palmitoyl-2-(5′-oxo-valeroyl)-sn-glycero-3-phosphocholine] | – | – | – | significantly decreased activity
